We go through 29 compounds from patent US20240383904A1, “HETEROCYCLIC COMPOUNDS” (Hoffmann-La Roche Inc., priority 2021, published 2024).

Structures are written as SMILES.

One may read the IC50 as the midpoint of a concentration-inhibition curve. High values mean lower potency, low ones higher potency.

The assay concerns the target T1, MAGL (Homo sapiens, UniProt Q99685).
T1 sequence (Q99685 1-303): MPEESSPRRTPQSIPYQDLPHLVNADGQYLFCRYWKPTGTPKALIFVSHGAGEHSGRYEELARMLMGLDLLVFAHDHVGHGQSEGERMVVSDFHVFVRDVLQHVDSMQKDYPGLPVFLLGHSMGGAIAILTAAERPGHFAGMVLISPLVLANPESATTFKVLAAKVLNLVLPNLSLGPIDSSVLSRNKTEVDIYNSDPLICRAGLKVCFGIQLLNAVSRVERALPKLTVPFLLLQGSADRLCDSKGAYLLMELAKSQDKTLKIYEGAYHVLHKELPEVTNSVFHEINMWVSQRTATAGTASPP
The assay is described as follows: 2-AG assay: MAGL inhibitory activity by hydrolysis of 2-arachidonoylglycerol to arachidonic acid, followed by mass spectrometry. Particulars: 15 min preincubation, 30 min reaction at RT, 8 μM 2-arachidonoylglycerol. In kind it is biochemical.
`O=C1CCC2(CN(C(=O)N3CC4(CCC(S(=O)(=O)c5cccc(C(F)(F)F)c5)CC4)C3)C2)N1` [Example 282, 2-[7-[3-(trifluoromethyl)phenyl]sulfonyl-2-azaspiro[3.5]nonane-2-carbonyl]-2,5-diazaspiro[3.4]octan-6-one]: 37.2 nM corresponded to half-maximal inhibition (IC50).
The value for `N=[S@](=O)(c1ccc(CC2CC3(C2)CN(C(=O)N2CC4(CCC(=O)N4)C2)C3)cc1)C(F)(F)F` [Example 283, 2-[6-[[4-(trifluoromethylsulfoni-midoyl)phenyl]methyl]-2-azaspiro[3.3]heptane-2-carbonyl]-2,5-diazaspiro[3.4]octan-6-one] was 0.62 nM; that for `N=[S@](=O)(c1ccc(CC2CC3(C2)CN(C(=O)N2CC4(COCC(=O)N4)C2)C3)cc1)C(F)(F)F` [Example 285, 2-[6-[[4-(trifluoromethylsulfoni-midoyl)phenyl]methyl]-2-azaspiro[3.3]heptane-2-carbonyl]-8-oxa-2,5-diazaspiro[3.5]nonan-6-one] was 4.95 nM.
Take `N=[S@@](=O)(c1ccc(CC2CC3(C2)CN(C(=O)N2CC4(CCC(=O)N4)C2)C3)cc1)C(F)(F)F` [Example 286, 2-[6-[[4-(trifluoromethylsulfoni-midoyl)phenyl]methyl]-2-azaspiro[3.3]heptane-2-carbonyl]-2,5-diazaspiro[3.4]octan-6-one]: the midpoint of inhibition, the IC50, lay at 2.89 nM.
Take `N=[S@@](=O)(c1ccc(CC2CC3(C2)CN(C(=O)N2CC4(COCC(=O)N4)C2)C3)cc1)C(F)(F)F` [Example 288, 2-[6-[[4-(trifluoromethylsulfoni-midoyl)phenyl]methyl]-2-azaspiro[3.3]heptane-2-carbonyl]-8-oxa-2,5-diazaspiro[3.5]nonan-6-one]: the IC50 was 8.91 nM.
Regarding `N=[S@@](=O)(c1cccc(CC2CC3(C2)CN(C(=O)N2CC4(CCC(=O)N4)C2)C3)c1)C(F)(F)F` [Example 289, 2-[6-[[3-(trifluoromethylsulfoni-midoyl)phenyl]methyl]-2-azaspiro[3.3]heptane-2-carbonyl]-2,5-diazaspiro[3.4]octan-6-one], the half-inhibitory concentration (IC50) came out at 0.44 nM.
In turn, `N=[S@@](=O)(c1cccc(CC2CC3(C2)CN(C(=O)N2CC4(CCCC(=O)N4)C2)C3)c1)C(F)(F)F` [Example 290, 2-[6-[[3-(trifluoromethylsulfoni-midoyl)phenyl]methyl]-2-azaspiro[3.3]heptane-2-carbonyl]-2,5-diazaspiro[3.5]nonan-6-one] showed an IC50 of 45.6 nM.
Under `N=[S@@](=O)(c1cccc(CC2CC3(C2)CN(C(=O)N2CC4(COCC(=O)N4)C2)C3)c1)C(F)(F)F` [Example 291, 2-[6-[[3-(trifluoromethylsulfoni-midoyl)phenyl]methyl]-2-azaspiro[3.3]heptane-2-carbonyl]-8-oxa-2,5-diazaspiro[3.5]nonan-6-one] stands 1.27 nM; under `N=[S@](=O)(c1cccc(CC2CC3(C2)CN(C(=O)N2CC4(CCC(=O)N4)C2)C3)c1)C(F)(F)F` [Example 292, 2-[6-[[3-(trifluoromethylsulfoni-midoyl)phenyl]methyl]-2-azaspiro[3.3]heptane-2-carbonyl]-2,5-diazaspiro[3.4]octan-6-one], 1.29 nM; under `N=[S@](=O)(c1cccc(CC2CC3(C2)CN(C(=O)N2CC4(CCCC(=O)N4)C2)C3)c1)C(F)(F)F` [Example 293, 2-[6-[[3-(trifluoromethylsulfoni-midoyl)phenyl]methyl]-2-azaspiro[3.3]heptane-2-carbonyl]-2,5-diazaspiro[3.5]nonan-6-one], 69.4 nM.
`N=[S@](=O)(c1cccc(CC2CC3(C2)CN(C(=O)N2CC4(COCC(=O)N4)C2)C3)c1)C(F)(F)F` [Example 294, 2-[6-[[3-(trifluoromethylsulfoni-midoyl)phenyl]methyl]-2-azaspiro[3.3]heptane-2-carbonyl]-8-oxa-2,5-diazaspiro[3.5]nonan-6-one] gave an IC50 of 2.15 nM.
The value for `O=C1CCC2(CN(C(=O)N3CC4(CC(Cc5ccc(S(=O)(=O)C(F)(F)F)cc5)C4)C3)C2)N1` [Example 295, 2-[6-[[4-(trifluoromethylsulfonyl)phenyl]methy]-2-azaspiro[3.3]heptane-2-carbonyl]-2,5-diazaspiro[3.4]octan-6-one] was 0.07 nM; that for `O=C1COCC2(CN(C(=O)N3CC4(CC(Cc5ccc(S(=O)(=O)C(F)(F)F)cc5)C4)C3)C2)N1` [Example 296, 2-[6-[[4-(trifluoromethylsulfonyl)phenyl]methyl]-2-azaspiro[3.3]heptane-2-carbonyl]-8-oxa-2,5-diazaspiro[3.5]nonan-6-one] was 0.15 nM.
For `N=S(=O)(c1cccc(OC(F)(F)F)c1)C1CC2(C1)CN(C(=O)N1CC3(CCC(=O)N3)C1)C2` (centres unmarked) [Example 297, 2-[6-[[3-(trifluoromethoxy)phenyl]sulfonimidoyl]-2-azaspiro[3.3]heptane-2-carbonyl]-2,5-diazaspiro[3.4]octan-6-one], the concentration for half-maximal inhibition (IC50) was found to be 75.9 nM.
Consider `N=S(=O)(c1cc(F)cc(CC2CC3(C2)CN(C(=O)N2CC4(CCC(=O)N4)C2)C3)c1)C(F)(F)F` (centres unmarked) [Example 298, 2-[6-[[3-fluoro-5-(trifluoromethylsulfoni-midoyl)phenyl]methyl]-2-azaspiro[3.3]heptane-2-carbonyl]-2,5-diazaspiro[3.4]octan-6-one], for which the half-inhibitory concentration (IC50) came out at 0.83 nM.
In turn, `O=C1CCC2(CN(C(=O)N3CC4(CC(Oc5cncc(C(F)(F)F)c5)C4)C3)C2)N1` [Example 299, 2-[6-[[5-(trifluoromethyl)-3-pyridyl]oxy]-2-azaspiro[3.3]heptane-2-carbonyl]-2,5-diazaspiro[3.4]octan-6-one] returned an IC50 of 63.5 nM.
Under `O=C1CCC2(CN(C(=O)N3CC4(CC(Cn5ncc(C(F)(F)F)n5)C4)C3)C2)N1` [Example 300, 2-[6-[[4-(trifluoromethyl)triazol-2-yl]methyl]-2-azaspiro[3.3]heptane-2-carbonyl]-2,5-diazaspiro[3.4]octan-6-one] stands 47.4 nM; under `N#Cc1ccc(OC2CC3(C2)CN(C(=O)N2CC4(CCC(=O)N4)C2)C3)cc1C(F)(F)F` [Example 301, 4-[[2-(6-oxo-2,5-diazaspiro[3.4]octane-2-carbonyl)-2-azaspiro[3.3]heptan-6-yl]oxy]-2-(trifluoromethyl)benzoni-trile], 15.4 nM; under `N#Cc1ccc(OC2CC3(C2)CN(C(=O)N2CC4(COCC(=O)N4)C2)C3)cc1C(F)(F)F` [Example 302, 4-[[2-(6-oxo-8-oxa-2,5-diazaspiro[3.5]nonane-2-carbonyl)-2-azaspiro[3.3]heptan-6-yl]oxy]-2-(trifluoromethyl)benzoni-trile], 68.8 nM.
Compound `O=C1CCC2(CN(C(=O)N3CC4(CC(Oc5ccc(Cl)cn5)C4)C3)C2)N1` [Example 303, 2-[6-[(5-chloro-2-pyridyl)oxy]-2-azaspiro[3.3]heptane-2-carbonyl]-2,5-diazaspiro[3.4]octan-6-one] displayed an IC50 of 35.7 nM.
`Cn1cc(C(F)(F)F)c(CC2CC3(C2)CN(C(=O)N2CC4(CCC(=O)N4)C2)C3)n1` [Example 304, 2-[6-[[1-methyl-4-(trifluoromethyl)pyrazol-3-yl]methyl]-2-azaspiro[3.3]heptane-2-carbonyl]-2,5-diazaspiro[3.4]octan-6-one] gave a half-inhibitory concentration (IC50) of 3.73 nM.
Take `Cc1nn(C)c(Cl)c1CN1CC2(C1)CN(C(=O)N1CC3(COC(=O)N3)C1)C2` [Example 305, 2-[6-[(5-chloro-1,3-dimethyl-pyrazol-4-yl)methyl]-2,6-diazaspiro[3.3]heptane-2-carbonyl]-7-oxa-2,5-diazaspiro[3.4]octan-6-one]: half-maximal inhibition (IC50) required 20.9 nM.
As for `O=C1CCC2(CN(C(=O)N3CC4(CN(Cc5nc(C(F)(F)F)cs5)C4)C3)C2)N1` [Example 306, 2-[6-[[4-(trifluoromethyl)thiazol-2-yl]methyl]-2,6-diazaspiro[3.3]heptane-2-carbonyl]-2,5-diazaspiro[3.4]octan-6-one], the IC50 turned out to be 287 nM.
With `N#Cc1cc(OC2CC3(C2)CN(C(=O)N2CC4(CCC(=O)N4)C2)C3)ccc1C(F)(F)F` [Example 307, 5-[[2-(6-oxo-2,5-diazaspiro[3.4]octane-2-carbonyl)-2-azaspiro[3.3]heptan-6-yl]oxy]-2-(trifluoromethyl)benzoni-trile], the concentration for half-maximal inhibition (IC50) is 48.1 nM. This IC50 lies about 6-fold lower than the previous one.
`O=C1CCC2(CN(C(=O)N3CC4(CC(Oc5nc(C(F)(F)F)cs5)C4)C3)C2)N1` [Example 308, 2-[6-[4-(trifluoromethyl)thiazol-2-yl]oxy-2-azaspiro[3.3]heptane-2-carbonyl]-2,5-diazaspiro[3.4]octan-6-one] had an IC50 of 49 nM.
The value for `O=C1CCC2(CN(C(=O)N3CC4(CC(Oc5ccc(F)cn5)C4)C3)C2)N1` [Example 309, 2-[6-[(5-fluoro-2-pyridyl)oxy]-2-azaspiro[3.3]heptane-2-carbonyl]-2,5-diazaspiro[3.4]octan-6-one] was 94.9 nM; that for `Cn1cc(OC2CC3(C2)CN(C(=O)N2CC4(CCC(=O)N4)C2)C3)c(C(F)(F)F)n1` [Example 310, 2-[6-[1-methyl-3-(trifluoromethyl)pyrazol-4-yl]oxy-2-azaspiro[3.3]heptane-2-carbonyl]-2,5-diazaspiro[3.4]octan-6-one] was 76.9 nM; that for `O=C1CCC2(CN(C(=O)N3CC4(CC(Cn5cc(C6(C(F)(F)F)CC6)cn5)C4)C3)C2)N1` [Example 311, 2-[6-[[4-[1-(trifluoromethyl)cyclopro-pyl]pyrazol-1-yl]methyl]-2-azaspiro[3.3]heptane-2-carbonyl]-2,5-diazaspiro[3.4]octan-6-one] was 4.08 nM.
On to `O=C1CCC2(CN(C(=O)N3CC4(CC(Cc5cc(C(F)(F)F)ncn5)C4)C3)C2)N1` [Example 312, 2-[6-[[6-(trifluoromethyl)pyrimi-din-4-yl]methyl]-2-azaspiro[3.3]heptane-2-carbonyl]-2,5-diazaspiro[3.4]octan-6-one], for which the IC50 came to 54.9 nM.
